The record followed here is patent publication US4983620A, “Pharmacologically active alkylthiobenzimidazole derivatives and process for the preparation thereof” (Dompe Farmaceutici S.p.A., priority 1988, dated 1991).

Counter-ions that a name gives are not always drawn. Bounds are passed on as bounds.

Broadly, the LD50 is the dose at which mortality reaches 50%. The term IC50 denotes the concentration at which inhibition is half-maximal.

Series [1] concerns mortality induced by histamine. Description: Effect on the mortality induced by histamine. Format: in vivo, male albino guinea pigs (Dunkin-Hartley). The note with it: Cavia porcellus, ip, 30 minutes before 1.25 mg/kg i.v. histamine dihydrochloride; guinea pigs; read-out: Histamine mortality ID50. How it is done: The method described by Romer D. et al., (Med. Welt 17, 791, 1966) was followed and the tests were carried out on male albino guinea pigs (Dunkin-Hartley), weighing 350-450 g, which were kept in cages with a grid floor, on an empty stomach for 24 hrs and with water ad libitum.
The compounds (I) were dissolved in saline solution and intraperitoneally administered to the animals: 30 minutes later the same animals were intravenously treated with 1.25 mg/kg of histamine dihydrochloride in saline solution.
It was evaluated ID50 which corresponds to the amount of the compound able to inhibit 50% of the mortality induced by histamine: the estimation of ID50 was carried out by applying the `probit` method (Finney D. J. "Statistical Method in Biological Assay" p. 512, 1957).

Series [2] has as its system mortality induced by compound 48/80. The series is described as follows: Effect on the mortality induced by compound 48/80. The conditions noted are these: Rattus norvegicus, ip, 4 h; i.p., 30 minutes before 2 mg/kg i.v. compound 48/80; rats; read-out: Compound 48/80 mortality ID50. Format: in vivo, Sprague Dawley Nos male rats. How it is done: The tests were carried out according to the method described by C. J. E. Niemergeers et al., Arch. Int. Pharmacodyn., 234,164,-1978. Sprague Dawley Nos male rats (Nossan, Correzzana, Milano) weighing 140-150 g, divided into groups of 10 animals each, on an empty stomach for 24 hrs and with water ad libitum, were kept in cages with a grid floor, then treated intravenously with 2 mg/kg of compound 48/80 (1 ml/rat). The compound (I) or the carrier were dissolved in water (5 ml/kg) and intraperitoneally administered to the animals 30 minutes before the treatment with the compound 48/80. The mortality occurred in the group of treated animals during the first 4 hours following the treatment was noted down. The results were expressed as the number of animals dead with respect to the number of treated animals.
The experimental data were submitted to the variance analysis and to the subsequent multiple comparisons according to Dunnett (D. J. Finney, "Statistical Method in Biological Assay", Ed. L. Griffin and Co., Ltd., pg. 152-157, Edition Ames, Iowa, 1971).

Series [3] is described as follows: Acute toxicity (LD50) on mice. The note with it: mouse, in vivo, ip. On the procedure:
The Letal Dose50 (LD50) was evaluated on mice using Swiss Nos (Nossan, Correzzana, Milano) mice weighing 18-20 g each. The animals, divided into groups of 10 animals each (5M+5F), were on an empty stomach for 18 hrs, with water ad libitum, and kept in cages with a grid floor. The compounds (I) were dissolved in water or suspended in 0.5% carboxymethylcellulose and intraperitioneally administered to the animals (10 ml/kg). The mortality occurred in the tested animals within the following 6 hours was noted down. At the expiry of the 6th hour, the animals were allowed to eat up to the end of the experimentation which lasted 14 days. During this period all the toxic symptoms and the mortality occurring were noted.
The animals which died during the test period and those which were sacrificed at the end of the same, underwent autopsy for a macroscopic examination of their main organs. The experimental data were statistically compared with the X^2 method and LD50 was extrapolated by the `probit` method.

Series [4] in a line: Effect on the sleeping time. Format: in vivo. The note with it: 25 mg/kg i.p.
Series [5] deals with T1, H1 histaminergic receptors (Rattus norvegicus, UniProt P31390).
T1 construct: in homogenates of rat brain; from tissue; host or cells: rat whole brain homogenate
Description: Affinity towards H1 histaminergic receptors ([3H]Mepyramine displacement, rat brain homogenates). The conditions noted are these: 2 nM [3H]Mepyramine, 25° C., 15 minutes, pH 7.5, read-out: H1-receptor binding IC50. How it is done: The affinity of the examined compounds towards H1 histaminergic receptors as evaluated by displacement curves which were obtained of different concentrations, against [^3 H]
The incubation was performed at 25° C. for 15 minutes, in a final volume of 1 ml of […] Na/K phosphate buffer, pH 7.5, in the presence of 2 nM [^3 H] Mepyramina and 1.5 mg of cerebral protein. Aspecific binding was defined as the residual radioactivity bound in the presence of […] Clemastine. The test compounds were dissolved in phosphate buffer or dimethylsulfoxide (DMSO), the final concentration of DMSO was 0.5%. Incubation was terminated by filtration through glass fiber GF/B filters pre-soaked with 0.1% polyethylenimine (PEI). The radioactivity trapped by filters was counted by liquid scintillation.

T1 sequence (P31390 whole entry): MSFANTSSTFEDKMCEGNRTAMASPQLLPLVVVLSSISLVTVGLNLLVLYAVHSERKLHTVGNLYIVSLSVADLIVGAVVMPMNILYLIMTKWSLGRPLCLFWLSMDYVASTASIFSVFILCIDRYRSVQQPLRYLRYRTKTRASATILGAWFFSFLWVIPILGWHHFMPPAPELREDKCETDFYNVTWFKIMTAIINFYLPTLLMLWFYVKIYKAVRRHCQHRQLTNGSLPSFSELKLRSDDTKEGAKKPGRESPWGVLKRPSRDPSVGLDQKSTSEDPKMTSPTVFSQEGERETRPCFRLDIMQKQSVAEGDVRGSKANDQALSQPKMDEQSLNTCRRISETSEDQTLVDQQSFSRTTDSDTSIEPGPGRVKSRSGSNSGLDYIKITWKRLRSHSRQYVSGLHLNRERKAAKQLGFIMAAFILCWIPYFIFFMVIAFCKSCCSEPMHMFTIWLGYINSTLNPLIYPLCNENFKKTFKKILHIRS

Turning to `CC(C)(C)c1ccc(C(O)CCCN2CCC(C(O)(c3ccccc3)c3ccccc3)CC2)cc1` (centres unmarked) [Terfenadine, reference compound], the ED50 is 0.735 mg/kg in series [1] and 1.99 mg/kg in series [2]. In series [3], this molecule displayed an LD50 at 336 h greater than 100 mg/kg. Further, the “Sleeping time % increase” value in series [4] is 8%.

For the molecule `CCOCCn1c(SCCN(C)C)nc2ccccc21` [Example 3, 1-(2-Ethoxyethyl)-2-(2-dimethylaminoethylthio)benzimidazole. 2 HCl], the ED50 in series [1] amounted to 0.0109 mg/kg; in series [2], 0.008 mg/kg. Also, in series [5], the 50% inhibitory concentration (IC50) was 2.4 nM. This molecule gave an LD50 at 336 h in series [3] greater than 100 mg/kg. Also, the “Sleeping time % increase” value in series [4] turned out to be 5%.

Take `CCOCCn1c(SCC(C)N(C)C)nc2ccccc21` (centres unmarked) [Example 5, 1-(2-Ethoxyethyl)-2-(2-dimethylaminoisopropylthio)benzimidazole]: the results for the ED50 in series [1] and in series [2] were 0.05 mg/kg and 0.009 mg/kg, respectively. Also, the IC50 in series [5] amounted to 6.1 nM. In series [3], this molecule gave an LD50 at 336 h of roughly 100 mg/kg. Besides, the “Sleeping time % increase” value in series [4] was determined as 10%.
